# Reference: patent US6355799B1, “Substituted benzene compounds, process for their preparation, and herbicidal and defoliant compositions containing them” (ISK Americas Incorporated, priority 1997, dated 2002)
# Legend:
# Assay type in all cases: in vivo
# [1] = system: redroot pigweed (Amaranthus retroflexus, AMARE); experiment: Pre-emerge test, greenhouse herbicide activity screening; conditions: pre-emerge, rated 14 days after application, 0 = no damage, 100 = complete death
# In short: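 Plants grown in 10 cm pots of sandy loam mix received acetone-dissolved compounds through a moving flat-fan nozzle. Doses ranged from 15 to 1000 g ai/ha. Pre-emerge pots were seeded one day earlier, post-emerge pots 8–21 days earlier. Fourteen days on, each pot was graded 0–100 for damage.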
# [2] = system: field corn (Zea mays L., var. Dekalb 535, CORN); experiment: Pre-emerge test, crop safety; conditions: pre-emerge, rated 14 days after application, 0 = no damage, 100 = complete death
# In short: (§1)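 Visual ratings on a 0-100 scale (0 no damage, 100 all plants dead) were taken at 14 days after treatment. Rates of 15-1000 g ai/ha in acetone, 187 l/ha, were sprayed onto soil one day after planting (pre-emerge) or onto 2-3 leaf plants with 0.25% v/v surfactant (post-emerge).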
# [3] = system: upland rice (Oryza sp., var. Tebonnet, RICE); experiment: Pre-emerge test, crop safety; conditions: pre-emerge, rated 14 days after application, 0 = no damage, 100 = complete death
# In short: as §1
# [4] = system: barnyardgrass (Echinochloa crus-galli, ECHCG); experiment: Post-emerge test, greenhouse herbicide activity screening; conditions: phytotoxicity rating 0-100 (0 no damage, 100 complete death), 14 days after application
# In short: (§2)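 Compounds in acetone were track-sprayed at 15-1000 g ai/ha (187 l/ha) on sandy loam pots: pre-emerge one day after seeding, post-emerge at 2-3 leaf stage with 0.25% v/v non-ionic surfactant. Phytotoxicity was rated 14 days later on a 0 (no damage) to 100 (complete death) scale.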
# [5] = system: lambsquarters (Chenopodium album, CHEAL); experiment: as above; conditions: phytotoxicity rating 0-100 (0 no damage, 100 complete death), 14 days after application
# In short: as §2
# [6] = system: large crabgrass (Digitaria sanguinalis, DIGSA); experiment: as above; conditions: phytotoxicity rating 0-100 (0 no damage, 100 complete death), 14 days after application
# In short: as §2
# [7] = system: sicklepod (Cassia obtusifolia, CASOB); experiment: as above; conditions: phytotoxicity rating 0-100 (0 no damage, 100 complete death), 14 days after application
# In short: as §2
# [8] = system: common ragweed (Ambrosia artemisizfolia L., AMBEL); experiment: as above; conditions: phytotoxicity rating 0-100 (0 no damage, 100 complete death), 14 days after application
# In short: as §2
# [9] = system: ivyleaf morningglory (Ipomoea hederacea, IPOHE); experiment: as above; conditions: phytotoxicity rating 0-100 (0 no damage, 100 complete death), 14 days after application
# In short: as §2
# [10] = system: johnsongrass (Sorghum halepense, SORHA); experiment: as above; conditions: phytotoxicity rating 0-100 (0 no damage, 100 complete death), 14 days after application
# In short: as §2
# [11] = system: green foxtail (Setaria viridis, SETVI); experiment: as above; conditions: phytotoxicity rating 0-100 (0 no damage, 100 complete death), 14 days after application
# In short: as §2
# [12] = system: redroot pigweed (Amaranthus retroflexus, AMARE); experiment: as above; conditions: phytotoxicity rating 0-100 (0 no damage, 100 complete death), 14 days after application
# In short: as §2
# [13] = system: velvetleaf (Abutilon theophrasti, ABUTH); experiment: as above; conditions: phytotoxicity rating 0-100 (0 no damage, 100 complete death), 14 days after application
# In short: as §2
# [14] = system: field corn (Zea mays L., var. Dekalb 535, CORN); experiment: Post-emerge test, crop safety; conditions: phytotoxicity rating 0-100 (0 no damage, 100 complete death), 14 days after application
# In short: (§3)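 Compounds in acetone were track-sprayed at 187 l/ha, 15–1000 g ai/ha, onto sandy loam pots. Pre-emerge seeds were sown one day before spraying, with surface watering afterwards. Post-emerge plants were at the 2–3 leaf stage and sprayed with 0.25% v/v non-ionic surfactant. Injury was rated 0–100 at 14 days.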
# [15] = system: upland rice (Oryza sp., var. Tebonnet, RICE); experiment: Post-emerge test, crop safety; conditions: phytotoxicity rating 0-100 (0 no damage, 100 complete death), 14 days after application
# In short: as §3
# [16] = system: barnyardgrass (Echinochloa crus-galli, ECHCG); experiment: Pre-emerge test, greenhouse herbicide activity screening; conditions: pre-emerge, rated 14 days after application, 0 = no damage, 100 = complete death
# In short: as §3
# [17] = system: lambsquarters (Chenopodium album, CHEAL); experiment: as above; conditions: pre-emerge, rated 14 days after application, 0 = no damage, 100 = complete death
# In short: as §3
# [18] = system: large crabgrass (Digitaria sanguinalis, DIGSA); experiment: as above; conditions: pre-emerge, rated 14 days after application, 0 = no damage, 100 = complete death
# In short: as §3
# [19] = system: sicklepod (Cassia obtusifolia, CASOB); experiment: as above; conditions: pre-emerge, rated 14 days after application, 0 = no damage, 100 = complete death
# In short: as §3
# [20] = system: common ragweed (Ambrosia artemisizfolia L., AMBEL); experiment: as above; conditions: pre-emerge, rated 14 days after application, 0 = no damage, 100 = complete death
# In short: as §3
# [21] = system: ivyleaf morningglory (Ipomoea hederacea, IPOHE); experiment: as above; conditions: pre-emerge, rated 14 days after application, 0 = no damage, 100 = complete death
# In short: as §3
# [22] = system: johnsongrass (Sorghum halepense, SORHA); experiment: as above; conditions: pre-emerge, rated 14 days after application, 0 = no damage, 100 = complete death
# In short: as §3
# [23] = system: green foxtail (Setaria viridis, SETVI); experiment: as above; conditions: pre-emerge, rated 14 days after application, 0 = no damage, 100 = complete death
# In short: as §3
# [24] = system: velvetleaf (Abutilon theophrasti, ABUTH); experiment: as above; conditions: pre-emerge, rated 14 days after application, 0 = no damage, 100 = complete death
# In short: as §3
smiles,measurement,setting,value
COc1c(Cl)cc(F)c(-n2c(=O)c(NC(=O)C(F)(F)F)c(C(F)(F)F)n(C)c2=O)c1NC(=O)C(F)(F)F [2-12],"Pre-emerge Herbicidal Activity AMARE (phytotoxicity rating, scale 0-100)",[1]; 63 g ai/ha,30
same,"Pre-emerge Herbicidal Activity AMARE (phytotoxicity rating, scale 0-100)",[1]; 250 g ai/ha,100
same,"Pre-emerge crop damage CORN (phytotoxicity rating, scale 0-100)",[2]; 63 g ai/ha,0
same,"Pre-emerge crop damage CORN (phytotoxicity rating, scale 0-100)",[2]; 250 g ai/ha,0
same,"Pre-emerge crop damage RICE (phytotoxicity rating, scale 0-100)",[3]; 63 g ai/ha,0
same,"Pre-emerge crop damage RICE (phytotoxicity rating, scale 0-100)",[3]; 250 g ai/ha,0
same,Post-emerge Herbicidal Activity ECHCG,[4]; 63 g ai/ha,0
same,Post-emerge Herbicidal Activity ECHCG,[4]; 250 g ai/ha,0
same,Post-emerge Herbicidal Activity CHEAL,[5]; 63 g ai/ha,0
same,Post-emerge Herbicidal Activity CHEAL,[5]; 250 g ai/ha,40
same,Post-emerge Herbicidal Activity DIGSA,[6]; 63 g ai/ha,0
same,Post-emerge Herbicidal Activity DIGSA,[6]; 250 g ai/ha,0
same,Post-emerge Herbicidal Activity CASOB,[7]; 63 g ai/ha,0
same,Post-emerge Herbicidal Activity CASOB,[7]; 250 g ai/ha,0
same,Post-emerge Herbicidal Activity AMBEL,[8]; 63 g ai/ha,0
same,Post-emerge Herbicidal Activity AMBEL,[8]; 250 g ai/ha,10
same,Post-emerge Herbicidal Activity IPOHE,[9]; 63 g ai/ha,0
same,Post-emerge Herbicidal Activity IPOHE,[9]; 250 g ai/ha,50
same,Post-emerge Herbicidal Activity SORHA,[10]; 63 g ai/ha,0
same,Post-emerge Herbicidal Activity SORHA,[10]; 250 g ai/ha,0
same,Post-emerge Herbicidal Activity SETVI,[11]; 63 g ai/ha,0
same,Post-emerge Herbicidal Activity SETVI,[11]; 250 g ai/ha,0
same,Post-emerge Herbicidal Activity AMARE,[12]; 63 g ai/ha,0
same,Post-emerge Herbicidal Activity AMARE,[12]; 250 g ai/ha,10
same,Post-emerge Herbicidal Activity ABUTH,[13]; 63 g ai/ha,20
same,Post-emerge Herbicidal Activity ABUTH,[13]; 250 g ai/ha,65
same,Post-emerge Herbicidal Activity CORN (crop damage),[14]; 63 g ai/ha,0
same,Post-emerge Herbicidal Activity CORN (crop damage),[14]; 250 g ai/ha,0
same,Post-emerge Herbicidal Activity RICE (crop damage),[15]; 63 g ai/ha,0
same,Post-emerge Herbicidal Activity RICE (crop damage),[15]; 250 g ai/ha,0
same,"Pre-emerge Herbicidal Activity ECHCG (phytotoxicity rating, scale 0-100)",[16]; 63 g ai/ha,0
same,"Pre-emerge Herbicidal Activity ECHCG (phytotoxicity rating, scale 0-100)",[16]; 250 g ai/ha,0
same,"Pre-emerge Herbicidal Activity CHEAL (phytotoxicity rating, scale 0-100)",[17]; 63 g ai/ha,0
same,"Pre-emerge Herbicidal Activity CHEAL (phytotoxicity rating, scale 0-100)",[17]; 250 g ai/ha,30
same,"Pre-emerge Herbicidal Activity DIGSA (phytotoxicity rating, scale 0-100)",[18]; 63 g ai/ha,0
same,"Pre-emerge Herbicidal Activity DIGSA (phytotoxicity rating, scale 0-100)",[18]; 250 g ai/ha,0
same,"Pre-emerge Herbicidal Activity CASOB (phytotoxicity rating, scale 0-100)",[19]; 63 g ai/ha,30
same,"Pre-emerge Herbicidal Activity CASOB (phytotoxicity rating, scale 0-100)",[19]; 250 g ai/ha,40
same,"Pre-emerge Herbicidal Activity AMBEL (phytotoxicity rating, scale 0-100)",[20]; 63 g ai/ha,0
same,"Pre-emerge Herbicidal Activity AMBEL (phytotoxicity rating, scale 0-100)",[20]; 250 g ai/ha,0
same,"Pre-emerge Herbicidal Activity IPOHE (phytotoxicity rating, scale 0-100)",[21]; 63 g ai/ha,40
same,"Pre-emerge Herbicidal Activity IPOHE (phytotoxicity rating, scale 0-100)",[21]; 250 g ai/ha,70
same,"Pre-emerge Herbicidal Activity SORHA (phytotoxicity rating, scale 0-100)",[22]; 63 g ai/ha,0
same,"Pre-emerge Herbicidal Activity SORHA (phytotoxicity rating, scale 0-100)",[22]; 250 g ai/ha,0
same,"Pre-emerge Herbicidal Activity SETVI (phytotoxicity rating, scale 0-100)",[23]; 63 g ai/ha,0
same,"Pre-emerge Herbicidal Activity SETVI (phytotoxicity rating, scale 0-100)",[23]; 250 g ai/ha,0
same,"Pre-emerge Herbicidal Activity ABUTH (phytotoxicity rating, scale 0-100)",[24]; 63 g ai/ha,50
same,"Pre-emerge Herbicidal Activity ABUTH (phytotoxicity rating, scale 0-100)",[24]; 250 g ai/ha,70
